The source of these data is ChEMBL document CHEMBL1201862, “PubChem BioAssay data set” (2004).

Holding throughout (assay): DTP human tumour cell line panel, 48 h
Assay [1] relates to IGROV-1.
Assay [2] concerns OVCAR-3.
Assay [3] deals with CCRF-CEM.
Assay [4] has as its system NCI-H23.
The test system of assay [5] is 786-0.
In assay [6] the test system is HCT-15.
Assay [7] deals with MCF7.
In assay [8] the test system is NCI-H226.
The subject of assay [9] is NCI-H460.
Assay [10] relates to M19-MEL.
Assay [11] concerns RPMI-8226.
Assay [12] deals with SN12C.
The test system of assay [13] is KM12.
Assay [14] relates to Hs-578T.
The test system of assay [15] is SK-MEL-2.
Assay [16] deals with OVCAR-8.
For assay [17], the system named is MDA-N.
The subject of assay [18] is HOP-92.
For assay [19], the system named is DMS-114.
Assay [20] relates to UO-31.

Structures are written as SMILES.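 Protocol summary: plate cells (96-well), add compound at 5 concentrations, incubate 48 h, interpolate endpoints linearly. The concentration for 50% growth inhibition is given as GI50.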 Activity calls are given as the source filed them. Rule as the data show it: active = GI50 up to about 1.1 µM and inactive = higher.

As for `Cc1ccc2c(c1)CN(C(=O)CCC(=O)OCc1ccccc1)c1ccc(C)cc1CN2C(=O)CCC(=O)OCc1ccccc1`, the GI50 in assay [1] is > 100 µM (inactive); in assay [2], > 100 µM (inactive); in assay [3] it was > 100 µM (inactive); in assay [4], > 100 µM (inactive); in assay [5], > 90.8 µM (inactive); in assay [6] it was greater than 100 µM. Also, the GI50 in assay [7] was 9.25 µM (inactive); in assay [8] it was > 100 µM (inactive); in assay [9] it was > 100 µM (inactive); in [10] it was > 100 µM (inactive); in [11], > 100 µM (inactive); in [12], > 100 µM (inactive). The GI50 was 99.3 µM (inactive) in assay [13]; 40 µM (inactive) in assay [14]; > 100 µM (inactive) in assay [15]; > 100 µM (inactive) in [16]; > 100 µM (inactive) in [17]; 82.2 µM (inactive) in assay [18]. The GI50 in assay [19] was > 100 µM (inactive).

Turning to `NC1=NN(c2ccccc2)C(=O)C1C(=O)C(=O)Nc1cccc(C(F)(F)F)c1` (centres undefined), the GI50 in assay [1] is > 100 µM (inactive); in assay [2] it was > 100 µM (inactive); in [3] it was > 100 µM (inactive); in [4], > 100 µM (inactive); in [5], > 100 µM (inactive); in [6] it was greater than 100 µM. For the same molecule, the GI50 in assay [8], in assay [9], in [10], in [11], in assay [12] and in assay [20] was > 100 µM (inactive) throughout. The GI50 in assay [13] is > 100 µM (inactive); in [15] it was > 100 µM (inactive); in [16], > 100 µM (inactive); in [18], 23.7 µM (inactive); in assay [19], > 100 µM (inactive).

For `COc1cc(C=O)c(-c2cc(OC)c(OC)cc2C=O)cc1OC`, the GI50 in [1] is > 100 µM (inactive); in assay [2], > 100 µM (inactive); in assay [3] it was 30.1 µM (inactive); in assay [4], 52.6 µM (inactive); in assay [5], > 100 µM (inactive); in [6], greater than 100 µM. The GI50 was > 100 µM (inactive) in [8]; 90.4 µM (inactive) in assay [9]; > 100 µM (inactive) in assay [10]; 36.9 µM (inactive) in assay [11]; > 100 µM (inactive) in [12]; 64.6 µM (inactive) in [20]. For the same molecule, the GI50 in assay [13] was > 100 µM (inactive); in assay [15], 67 µM (inactive); in assay [16], 91.4 µM (inactive); in assay [18], > 100 µM (inactive); in assay [19], 24.3 µM (inactive).

For the molecule `CC(=O)OCC1OC(n2c(=O)n(-c3ccccc3)c(=O)c3ccccc32)C(OC(C)=O)C(OC(C)=O)C1OC(C)=O` (centres undefined), the GI50 in assay [1] is > 100 µM (inactive); in assay [2], > 100 µM (inactive); in assay [3], 53.7 µM (inactive); in [4], > 100 µM (inactive); in assay [5], > 100 µM (inactive); in [6] it was greater than 100 µM. Moreover, the GI50 is > 100 µM (inactive) in assay [8]; > 100 µM (inactive) in assay [9]; > 100 µM (inactive) in assay [10]; 73.8 µM (inactive) in assay [11]; > 100 µM (inactive) in [12]; > 100 µM (inactive) in assay [20]. Also, the GI50 in [13], in assay [15], in assay [16], in assay [18] and in assay [19] was > 100 µM (inactive) throughout.

On to `O=c1c2ccccc2[nH]c2ccc3c(Cl)n[nH]c3c12`, for which the GI50 was 35 µM (inactive) in assay [1]; 57.4 µM (inactive) in assay [2]; 56.9 µM (inactive) in [3]; 35.2 µM (inactive) in [4]; 34.1 µM (inactive) in [5]; 35.6 µM in [6]. Also, the 50% growth inhibitory concentration (GI50) in assay [8] is 0.54 µM (active); in assay [9], 31.8 µM (inactive); in [10], 42.6 µM (inactive); in assay [11], 39.7 µM (inactive); in [12], 33.5 µM (inactive); in assay [20], 26.7 µM (inactive). The GI50 in [13] was 32.9 µM (inactive); in assay [15] it was 30.7 µM (inactive); in assay [16], 40.5 µM (inactive); in assay [18], 38.5 µM (inactive); in assay [19], 57.7 µM (inactive).

Consider `CCCC(=O)N[C@H]1CCc2cc(OC)c(OC)c(OC)c2-c2ccc(SC)c(=O)cc21`, for which the GI50 in [1] is < 0.01 µM (active); in assay [2], < 0.01 µM (active); in [3], < 0.0465 µM (active); in [4] it was < 0.01 µM (active); in assay [5] it was < 0.01 µM (active); in assay [6], 0.0109 µM. For the same molecule, the GI50 was < 0.01 µM (active) in [7]; < 0.0465 µM (active) in assay [8]; < 0.01 µM (active) in [9]; < 0.01 µM (active) in assay [10]; 0.0631 µM (active) in assay [11]; < 0.01 µM (active) in assay [12]. The GI50 in assay [20] is 0.31 µM (active); in assay [13], < 0.01 µM (active); in assay [14], < 0.01 µM (active); in [15] it was < 0.01 µM (active); in assay [16], < 0.01 µM (active); in assay [17], < 0.01 µM (active). For the same molecule, the GI50 in assay [18] and in assay [19] was < 0.01 µM (active) throughout.

Regarding `O=S(=O)(/C=C/CS(=O)(=O)c1ccccc1)c1ccccc1`, the GI50 was 39.8 µM (inactive) in [1]; 26.5 µM (inactive) in [2]; 36.1 µM (inactive) in assay [3]; 19.2 µM (inactive) in [4]; 24.3 µM (inactive) in assay [5]; 17.5 µM in assay [6]. Also, the GI50 was 19.3 µM (inactive) in [8]; 21.9 µM (inactive) in [9]; 36.1 µM (inactive) in assay [10]; 18.8 µM (inactive) in [11]; 25.3 µM (inactive) in [12]; 42.5 µM (inactive) in assay [20]. The GI50 in assay [13] was 13.8 µM (inactive); in [15] it was 6.47 µM (inactive); in assay [16], 16.9 µM (inactive); in assay [18] it was 45 µM (inactive); in [19], 23.4 µM (inactive).

For orientation: GI50 means the concentration giving 50% growth inhibition.
